IC50 data for 18 molecules are collected here from ChEMBL document CHEMBL3351556, “Thee-component, one-pot synthesis of hexahydroazepino[3,4-b]indole and tetrahydro-1H-pyrido[3,4-b]indole derivatives and evaluation of their cytotoxicity” (Bioorg Med Chem Lett, 2014).

Type in all cases: functional, cell-based
Experiment [1] concerns A549. Briefly: Antiproliferative activity against human A549 cells after 48 hrs by MTT/quantitative colorimetric method. The settings on record: A549, 48 h.
Experiment [2] concerns HeLa. In words: Antiproliferative activity against human HeLa cells after 48 hrs by MTT/quantitative colorimetric method.
The subject of experiment [3] is MCF7. In words: Antiproliferative activity against human MCF7 cells after 48 hrs by MTT/quantitative colorimetric method. The settings on record: MCF7, 48 h.
The test system of experiment [4] is DU-145. In words: Antiproliferative activity against human DU145 cells after 48 hrs by MTT/quantitative colorimetric method. The settings on record: DU-145, 48 h.

Broadly, the IC50 is the concentration that inhibits the measured activity by half. High values mean a need for much substance, low ones inhibition by little substance.

As for `Cn1c2c(c3ccccc31)CCC(=O)N(c1ccc(F)c(Cl)c1)C2C(=O)NC1CCCCC1` (configuration not stated), the IC50 is greater than 100 µM in experiment [1], greater than 100 µM in experiment [2], 54 µM in experiment [3] and 82 µM in experiment [4].

`Cn1c2c(c3ccccc31)CCC(=O)N(c1ccc(F)cc1)C2C(=O)NC(C)(C)C` (configuration not stated): the 50% inhibitory concentration (IC50) is greater than 100 µM in experiment [1], 46 µM in experiment [2], 50 µM in experiment [3] and 70 µM in experiment [4].

Turning to `Cn1c2c(c3ccccc31)CCC(=O)N(c1cccc(F)c1)C2C(=O)NC1CCCCC1` (configuration not stated), the IC50 in experiment [1] was greater than 100 µM; in experiment [2], 44 µM; in experiment [3], 94 µM; in experiment [4], 52 µM.

As for `Cn1c2c(c3ccccc31)CCC(=O)N(c1ccc(Cl)cc1)C2C(=O)NC(C)(C)C` (configuration not stated), the IC50 in experiment [1] came out at 18 µM; in experiment [2] it was 13 µM; in experiment [3] it was 18 µM; in experiment [4], 21 µM.

Consider `Cn1c2c(c3ccccc31)CC(=O)N(c1ccc(Cl)cc1)C2C(=O)NC1CCCCC1` (configuration not stated), for which the IC50 in experiment [1] is 59 µM; in experiment [2], 55 µM; in experiment [3], greater than 100 µM; in experiment [4], 42 µM.

As for `Cn1c2c(c3ccccc31)CCC(=O)N(c1ccc(Cl)cc1)C2C(=O)NC1CCCCC1` (configuration not stated), the IC50 in experiment [1] amounted to 27 µM; in experiment [2], 12 µM; in experiment [3] it was 29 µM; in experiment [4] it was 13 µM.

Turning to `Cn1c2c(c3ccccc31)CCC(=O)N(c1ccc(F)c(Cl)c1)C2C(=O)NC(C)(C)C` (configuration not stated), the IC50 in experiment [1] is 35 µM; in experiment [2], 67 µM; in experiment [3] it was greater than 100 µM; in experiment [4], 56 µM.

On to `Cn1c2c(c3ccccc31)CCC(=O)N(c1ccc(F)cc1)C2C(=O)NC1CCCCC1` (configuration not stated), for which the IC50 in experiment [1] was 59 µM; in experiment [2] it was 48 µM; in experiment [3] it was 50 µM; in experiment [4] it was 90 µM.

Regarding `Cn1c2c(c3ccccc31)CC(=O)N(c1ccc(F)cc1)C2C(=O)NC(C)(C)C` (configuration not stated), the IC50 in experiment [1] is greater than 100 µM; in experiment [2], 26 µM; in experiment [3], 61 µM; in experiment [4] it was 78 µM.

In the case of `Cn1c2c(c3ccccc31)CCC(=O)N(c1ccc(Br)cc1)C2C(=O)NC1CCCCC1` (configuration not stated), the IC50 in experiment [1] is greater than 100 µM; in experiment [2], 63 µM; in experiment [3], 78 µM; in experiment [4], 55 µM.

As to `Cn1c2c(c3ccccc31)CC(=O)N(c1ccc(Cl)cc1)C2C(=O)NC(C)(C)C` (configuration not stated), the concentration for half-maximal inhibition (IC50) in experiment [1] is 63 µM; in experiment [2] it was 83 µM; in experiment [3], 96 µM; in experiment [4] it was greater than 100 µM.

Regarding `Cn1c2c(c3ccccc31)CC(=O)N(c1ccc(F)cc1)C2C(=O)NC1CCCCC1` (configuration not stated), the IC50 in experiment [1] is 62 µM; in experiment [2], 11 µM; in experiment [3] it was 50 µM; in experiment [4], 47 µM.

With `Cn1c2c(c3ccccc31)CC(=O)N(c1ccc(Br)cc1)C2C(=O)NC1CCCCC1` (configuration not stated), the IC50 is greater than 100 µM in experiment [1], 49 µM in experiment [2], 52 µM in experiment [3] and 45 µM in experiment [4].

As to `Cn1c2c(c3ccccc31)CC(=O)N(c1cccc(F)c1)C2C(=O)NC1CCCCC1` (configuration not stated), the IC50 is 85 µM in experiment [1], 25 µM in experiment [2], 95 µM in experiment [3] and greater than 100 µM in experiment [4].

Regarding `Cn1c2c(c3ccccc31)CC(=O)N(c1ccc(F)c(Cl)c1)C2C(=O)NC(C)(C)C` (configuration not stated), the IC50 was 80 µM in experiment [1], greater than 100 µM in experiment [2], greater than 100 µM in experiment [3] and 95 µM in experiment [4].

On to `Cc1ccc(C)c(N2C(=O)Cc3c(n(C)c4ccccc34)C2C(=O)NC(C)(C)C)c1` (configuration not stated), for which the IC50 is 49 µM in experiment [1], 95 µM in experiment [2], 87 µM in experiment [3] and 63 µM in experiment [4].

Turning to `Cc1ccc(C)c(N2C(=O)Cc3c(n(C)c4ccccc34)C2C(=O)NC2CCCCC2)c1` (configuration not stated), the IC50 in experiment [1] is greater than 100 µM; in experiment [2] it was greater than 100 µM; in experiment [3], 95 µM; in experiment [4] it was greater than 100 µM.

For `Cc1ccc(C)c(N2C(=O)CCc3c(n(C)c4ccccc34)C2C(=O)NC2CCCCC2)c1` (configuration not stated), the IC50 in experiment [1], in experiment [2], in experiment [3] and in experiment [4] was greater than 100 µM each time.
